Source: patent US5206234A, “Benzolactam analogs as antagonists of CCK” (priority 1991, dated 1993)

How the values were obtained:
CCK-A receptors = conditions: cited from earlier work
CCK receptor (Pancreas) = target: T1, CCK receptor (Pancreas) (Rattus norvegicus, UniProt P30551); assay: CCK Receptor Binding (Pancreas), inhibition of 125I-CCK-33 binding; design: species or system rat (Male Sprague-Dawley); conditions: 125I-CCK-33, rat pancreas membranes
T1 construct: The whole pancreas was dissected free of fat tissue and was homogenized; from tissue; host or cells: pancreas membranes of male Sprague-Dawley rats
T1 sequence (P30551 1-444): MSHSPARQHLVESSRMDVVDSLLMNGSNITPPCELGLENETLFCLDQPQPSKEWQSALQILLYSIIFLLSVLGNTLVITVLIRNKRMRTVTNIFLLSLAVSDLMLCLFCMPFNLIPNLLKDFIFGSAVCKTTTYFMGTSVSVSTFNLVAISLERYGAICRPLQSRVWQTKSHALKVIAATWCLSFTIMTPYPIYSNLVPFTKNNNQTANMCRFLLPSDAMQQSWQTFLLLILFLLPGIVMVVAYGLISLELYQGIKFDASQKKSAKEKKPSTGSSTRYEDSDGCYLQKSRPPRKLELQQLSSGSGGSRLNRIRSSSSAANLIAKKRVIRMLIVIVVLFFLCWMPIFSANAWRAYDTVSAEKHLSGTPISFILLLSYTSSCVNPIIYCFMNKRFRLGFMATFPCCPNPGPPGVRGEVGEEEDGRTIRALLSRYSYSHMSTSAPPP
Description: CCK-33 was radiolabeled with ^125 I-Bolton Hunter reagent (2000 Ci/mmole) as described by Sankara et al. (J. Biol. Chem. 254: 9349-9351, 1979). Receptor binding was performed according to Innis and Snyder (Proc. Natl. Acad. Sci. 77, 6917-6921, 1980) with the minor modification of adding the additional protease inhibitors, phenylmethane sulfonyl fluoride and o-phenanthroline. The latter two compounds have no effect on the ^125 I-CCK receptor binding assay.
Male Sprague-Dawley rats (200-350 g) were sacrificed by decapitation. The whole pancreas was dissected free of fat tissue and was homogenized in 20 volumes of ice-cold 50 mM Tris HCl (pH 7.7 at 25° C.) with a Brinkmann Polytron PT 10. The homogenates were centrifuged at 48,000 g for 10 min. Pellets were resuspended in Tris Buffer, centrifuged as above and resuspended in 200 volumes of binding assay buffer (50 mM Tris HCl, pH 7.7 at 25° C., 5 mM dithiothrietol, 0.1 mM bacitracin, 1.2 mM phenylmethane sulfonyl fluoride and 0.5 mM o-phenanthroline). […] All assays were run in duplicate or triplicate. The reaction mixtures were incubated at 37° C. for 30 minutes and centrifuged in a Beckman Microfuge (4 minutes) immediately after adding 1 ml of ice-cold incubation buffer. The supernatant was aspirated and discarded, pellets were counted with a Beckman gamma 5000. For Scatchard analysis (Ann. N.Y. Acad. Sci. 51: 660, 1949), ^125 I-CCK-33 was progressively diluted with increasing concentrations of CCK-33.
A Ki value (dissociation constant of inhibitor) of the compounds of Formula I was estimated.

[1] = target: T2, CCK receptor (Brain, cerebral cortex) (Cavia porcellus, UniProt H0VZC5); assay: CCK Receptor Binding (Brain), inhibition of 125I-CCK-33 binding; design: species or system guinea pig (Male Hartley); conditions: head prints ^25 I-CCK; guinea pig cerebral cortex
T2 construct: Cerebral cortex was dissected and used as a receptor source; from tissue; host or cells: cerebral cortex membranes of male Hartley guinea pigs
T2 sequence (H0VZC5 1-426): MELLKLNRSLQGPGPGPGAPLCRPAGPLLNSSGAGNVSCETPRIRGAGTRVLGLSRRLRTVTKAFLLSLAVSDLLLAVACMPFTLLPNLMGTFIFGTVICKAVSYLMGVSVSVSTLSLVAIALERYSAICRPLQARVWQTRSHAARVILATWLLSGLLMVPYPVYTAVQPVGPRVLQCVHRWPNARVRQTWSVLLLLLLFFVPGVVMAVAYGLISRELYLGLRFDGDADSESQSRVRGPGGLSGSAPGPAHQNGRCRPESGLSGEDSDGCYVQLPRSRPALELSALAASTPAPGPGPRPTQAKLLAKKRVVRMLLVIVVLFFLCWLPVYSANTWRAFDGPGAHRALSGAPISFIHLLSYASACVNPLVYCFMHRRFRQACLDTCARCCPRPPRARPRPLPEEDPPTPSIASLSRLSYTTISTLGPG
Description: CCK-33 was radiolabeled and the binding was performed according to the description for the pancreas method with modifications according to Saito et al., J. Neurochem. 37:483-490, 1981.
Male Hartley guinea pigs (300-500 g) were sacrificed by decapitation and the brains were removed and placed in ice-cold 50 mM Tris HCl plus 7.58 g/l Trizma-7.4 (pH 7.4 at 25° C.). Cerebral cortex was dissected and used as a receptor source. Each gram of fresh guinea pig brain tissue was homogenized in 10 ml of Tris/Trizma buffer with a Brinkman polytron PT-10. The homogenates were centrifuged at 42,000 g for 15 minutes. Pellets were resuspended in Tris Buffer, centrifuged as above and resuspended in 200 volumes of binding assay buffer (10 mM N-2-hydroxyethyl-piperazine-N'-2-ethane sulfonic acid (HEPES), 5 mM MgCl2, 0.25 mg/ml bacitracin, 1 mM ethylene glycol-bis-(β-aminoethylether-N,N'-tetraacetic acid) (EGTA), and 0.4% bovine serum albumin (BSA)). […] All assays were run in duplicate or triplicate. The reaction mixtures were incubated at 25° C. for 2 hours and centrifuged in a Beckman Microfuge (4 minutes) immediately after adding 1 ml of ice-cold incubation buffer. The supernatant was aspirated and discarded, pellets were counted with a Beckman gamma 5000.

[2] = target: T3, Gastrin receptor (Gastric Glands) (Cavia porcellus, UniProt H0VZC5); assay: Gastrin Receptor Binding in Guinea Pig Gastric Glands; design: species or system guinea pig (male Hartley); conditions: head prints ^25 I-Gastrin, read-out: Receptor binding IC50, 125I-Gastrin Gastric Glands
T3 construct: from tissue; host or cells: gastric mucosal glands of male Hartley guinea pigs
T3 sequence (H0VZC5 1-426): T2 sequence (H0VZC5 1-426)
Description: Guinea pig gastric mucosal glands were prepared by the procedure of Berglingh and Obrink Acta Physiol. Scand. 96: 150 (1976) with a slight modification according to Praissman et al. C. J. Receptor Res. 3: (1983). Gastric mucosa from guinea pigs (300-500 g body weight, male Hartley) were washed thoroughly and minced with fine scissors in standard buffer consisting of the following: 130 mM NaCl, 12 mM NaHCO3, 3 mM NaH2 PO4, 3 mM Na2 HPO4, 3 mM K2 HPO4, 2 mM MgSO4, 1 mM CaCl2, 5 mM glucose and 4 mM L-glutamine, 25 mM HEPES at pH 7.4. The minced tissues were washed and then incubated in a 37° C. shaker bath for 40 minutes with the buffer containing 0.1% collagenase and 0.1% BSA and bubbled with 95% O2 and 5% CO2. The tissues were passed twice through a 5 ml glass syringe to liberate the gastric glands, and then filtered through 200 mesh nylon. The filtered glands were centrifuged at 270 g for 5 minutes and washed twice by resuspension and centrifugation.
The washed guinea pig gastric glands prepared as above were resuspended in 25 ml of standard buffer containing 0.25 mg/ml of bacitracin. For binding studies, to 220 μl of gastric glands in triplicate tubes, 10 μl of buffer (for total binding) or gastrin (1 μM final concentration, for nonspecific binding) or test compound and 10 μl of ^125 I-gastrin (NEN, 2200 Ci/mmole, 25 pM final) or ^3 H-pentagastrin (NEN 22 Ci/mmole, 1 nM final) were added. The tubes were aerated with 95% O2 and 5% CO2 and capped. The reaction mixtures after incubation at 25° C. for 30 minutes were filtered under reduced pressure on glass G/F B filters (Whatman) and immediately washed further with 4×4 ml of standard buffer containing 0.1% BSA. The radioactivity on the filters was measured using a Beckman gamma 5500 for ^125 I-gastrin or liquid scintillation counting for ^3 H-pentagastrin.

CCK-B receptors = conditions: cited from earlier work

**Q.** With `CSCC[C@H](NC(=O)[C@H](Cc1ccc(O)cc1)NC(=O)[C@@H](N)CC(=O)O)C(=O)NCC(=O)N[C@@H](Cc1c[nH]c2ccccc12)C(=O)N[C@@H](CCSC)C(=O)N[C@@H](CC(=O)O)C(=O)N[C@@H](Cc1ccccc1)C(N)=O` [CCK-8d] as the molecule, how does the “Affinity for CCK-A receptors” value (CCK-A receptors) read?
**A.** lower affinity

**Q.** With `O=C(Nc1cccc2ccccc12)NC1CCc2ccccc2N(CC(=O)N2CCCC2)C1=O` (stereo not drawn) [Example 11, 1-{[2,3,4,5-Tetrahydro-3-{[[(1-naphthalenyl)amino]carbonyl]amino}-2-oxo-1H-1-benzazepin-1-yl]acetyl}pyrrolidine] as the molecule, how does the IC50 (CCK receptor (Pancreas)) read?
**A.** 1700 nM

**Q.** What about the IC50 [1] of the same molecule?
**A.** 650 nM

**Q.** What about the IC50 [2] of the same molecule?
**A.** 460 nM

**Q.** With `Cc1ccc(NC(=O)NC2CCc3ccccc3N(CC(=O)OC(C)(C)C)C2=O)cc1` (stereo not drawn) [Example 12] as the molecule, how does the IC50 (CCK receptor (Pancreas)) read?
**A.** 170 nM

**Q.** What about the IC50 [1] of the same molecule?
**A.** 660 nM

**Q.** What about the IC50 [2] of the same molecule?
**A.** 130 nM

**Q.** With `CSCC[C@H](NC(=O)[C@H](Cc1c[nH]c2ccccc12)NC(=O)CCNC(=O)OC(C)(C)C)C(=O)N[C@@H](CC(=O)O)C(=O)N[C@@H](Cc1ccccc1)C(N)=O` [pentagastrin] as the molecule, how does the “Affinity for CCK-B receptors” value (CCK-B receptors) read?
**A.** high affinity

**Q.** Which “Affinity for CCK-A receptors” value (CCK-A receptors) does the source give for “gastrin: structurally related neuropeptides which exist in gastrointestinal tissue and in the central nervous system” here?
**A.** lower affinity
